Source: ChEMBL document CHEMBL3997763 (Medchemcomm, 2016)
Activity calls are given as the source filed them. No cut-off for these calls is given here.

How the values were obtained:
[1] = biological target: T1, 3-hydroxy-3-methylglutaryl-coenzyme A reductase (Homo sapiens) (UniProt P04035); experiment: Inhibition of human HMG-CoA reductase catalytic domain at 100 uM using HMG-CoA as substrate in presence of NADPH by colorimetric method relative to control
T1 sequence (whole entry): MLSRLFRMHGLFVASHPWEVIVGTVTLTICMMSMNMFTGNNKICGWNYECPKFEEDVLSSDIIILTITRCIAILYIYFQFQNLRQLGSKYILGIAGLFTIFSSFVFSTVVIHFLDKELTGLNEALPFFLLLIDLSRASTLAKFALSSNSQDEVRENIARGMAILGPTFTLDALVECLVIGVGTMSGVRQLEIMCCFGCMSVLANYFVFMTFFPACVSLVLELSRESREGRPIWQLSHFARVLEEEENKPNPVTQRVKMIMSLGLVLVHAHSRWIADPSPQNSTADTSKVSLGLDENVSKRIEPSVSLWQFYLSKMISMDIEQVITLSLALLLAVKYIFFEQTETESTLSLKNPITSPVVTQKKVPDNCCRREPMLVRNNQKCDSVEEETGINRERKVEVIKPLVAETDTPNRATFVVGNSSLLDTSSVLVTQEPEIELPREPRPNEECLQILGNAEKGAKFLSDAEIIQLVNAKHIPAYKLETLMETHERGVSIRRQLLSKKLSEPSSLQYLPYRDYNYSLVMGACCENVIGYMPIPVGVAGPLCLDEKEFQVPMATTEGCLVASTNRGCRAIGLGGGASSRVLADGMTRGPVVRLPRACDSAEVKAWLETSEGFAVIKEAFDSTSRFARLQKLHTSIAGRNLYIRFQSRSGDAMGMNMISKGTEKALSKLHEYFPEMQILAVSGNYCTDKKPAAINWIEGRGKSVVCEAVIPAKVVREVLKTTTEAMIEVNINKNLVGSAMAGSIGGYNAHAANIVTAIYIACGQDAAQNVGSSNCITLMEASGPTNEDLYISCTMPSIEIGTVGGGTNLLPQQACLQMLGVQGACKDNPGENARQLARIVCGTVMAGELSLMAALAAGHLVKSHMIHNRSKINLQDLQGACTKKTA

Rattus norvegicus [2] = experiment: Hypolipidemic activity in HFD-induced Charles Foster rat assessed as increase in serum HDL-TG at 100 mg/kg administered as single dose via oral gavage for 30 days simultaneously with high fat diet; assay type: functional, organism-based
Rattus norvegicus [3] = species: Rattus norvegicus; experiment: animal or person; assay type: functional; details: Charles Foster, po, 18 h
Description: Antihyperlipidemic activity in triton WR-1339 induced Charles Foster rat hyperlipidemia model assessed as inhibition of phospholipid level in serum at 100 mg/kg, po administered simultaneously with triton WR-1339 after 18 hrs by enzymatic method relative to control

Rattus norvegicus [4] = experiment: Hypolipidemic activity in HFD-induced Charles Foster rat chronic hyperlipidemia model assessed as reduction in serum AST level at 100 mg/kg administered via oral gavage for 30 days simultaneously with high fat diet by colorimetric method relative to HFD treated vehicle; assay type: functional; details: 720 h
Rattus norvegicus [5] = species: Rattus norvegicus; experiment: animal or person; assay type: functional; details: Charles Foster, po, 18 h; remark: listed apart in the source
Description: Antihyperlipidemic activity in triton WR-1339 induced Charles Foster rat hyperlipidemia model assessed as inhibition of total cholesterol level in serum at 100 mg/kg, po administered simultaneously with triton WR-1339 after 18 hrs by enzymatic method relative to control

Rattus norvegicus [6] = experiment: Antihyperlipidemic activity in triton WR-1339 induced Charles Foster rat hyperlipidemia model assessed as increase in HDL-C level in serum at 150 mg/kg, po administered simultaneously with triton WR-1339 after 18 hrs by enzymatic method relative to control; assay type: functional
Rattus norvegicus [7] = experiment: Hypolipidemic activity in HFD-induced Charles Foster rat assessed as inhibition of hepatic HMG-CoA reductase activity by measuring […] at 100 mg/kg administered as single dose via oral gavage for 30 days simultaneously with high fat diet by colorimetric method; assay type: functional, organism-based

inhibition [1]: 81%
SMILES: COc1ccc(-c2cc3cc(C(c4c[nH]c5ccccc45)c4c[nH]c5ccccc45)cc(C(C)(C)C)c3oc2=O)cc1OC
Activity (Rattus norvegicus [2]): Active | inhibition in vivo at 100 mg/kg (Rattus norvegicus [3]): 33% | inhibition in vivo at 100 mg/kg (Rattus norvegicus [4]): 28% | inhibition in vivo at 100 mg/kg (Rattus norvegicus [5]): 32% | Activity (Rattus norvegicus [6]): 25% | inhibition (Rattus norvegicus [7]): Active
